From US12157746B2, “Tetrahydro-1H-pyrazino[2,1-a]isoindolylquinoline compounds for the treatment of autoimmune disease” (F. HOFFMANN-LA ROCHE AG, priority 2018, dated 2024)
pIC50: −log10 of the molar value. Converted amounts (≈) assume the structure as drawn.

Key:
hERG K+ channel = target: T1, hERG K+ channel (Homo sapiens, UniProt Q12809); assay: hERG channel inhibition assay; assay type: cell-based; details: patch-clamp (voltage-clamp, whole-cell); for pIC50: CHO cells expressing hERG; for IC20: human, CHO cells stably expressing hERG
T1 construct: expressed in transfected cells; host or cells: CHO (Chinese hamster ovary) cells, CHOhERG
T1 sequence (Q12809 whole entry): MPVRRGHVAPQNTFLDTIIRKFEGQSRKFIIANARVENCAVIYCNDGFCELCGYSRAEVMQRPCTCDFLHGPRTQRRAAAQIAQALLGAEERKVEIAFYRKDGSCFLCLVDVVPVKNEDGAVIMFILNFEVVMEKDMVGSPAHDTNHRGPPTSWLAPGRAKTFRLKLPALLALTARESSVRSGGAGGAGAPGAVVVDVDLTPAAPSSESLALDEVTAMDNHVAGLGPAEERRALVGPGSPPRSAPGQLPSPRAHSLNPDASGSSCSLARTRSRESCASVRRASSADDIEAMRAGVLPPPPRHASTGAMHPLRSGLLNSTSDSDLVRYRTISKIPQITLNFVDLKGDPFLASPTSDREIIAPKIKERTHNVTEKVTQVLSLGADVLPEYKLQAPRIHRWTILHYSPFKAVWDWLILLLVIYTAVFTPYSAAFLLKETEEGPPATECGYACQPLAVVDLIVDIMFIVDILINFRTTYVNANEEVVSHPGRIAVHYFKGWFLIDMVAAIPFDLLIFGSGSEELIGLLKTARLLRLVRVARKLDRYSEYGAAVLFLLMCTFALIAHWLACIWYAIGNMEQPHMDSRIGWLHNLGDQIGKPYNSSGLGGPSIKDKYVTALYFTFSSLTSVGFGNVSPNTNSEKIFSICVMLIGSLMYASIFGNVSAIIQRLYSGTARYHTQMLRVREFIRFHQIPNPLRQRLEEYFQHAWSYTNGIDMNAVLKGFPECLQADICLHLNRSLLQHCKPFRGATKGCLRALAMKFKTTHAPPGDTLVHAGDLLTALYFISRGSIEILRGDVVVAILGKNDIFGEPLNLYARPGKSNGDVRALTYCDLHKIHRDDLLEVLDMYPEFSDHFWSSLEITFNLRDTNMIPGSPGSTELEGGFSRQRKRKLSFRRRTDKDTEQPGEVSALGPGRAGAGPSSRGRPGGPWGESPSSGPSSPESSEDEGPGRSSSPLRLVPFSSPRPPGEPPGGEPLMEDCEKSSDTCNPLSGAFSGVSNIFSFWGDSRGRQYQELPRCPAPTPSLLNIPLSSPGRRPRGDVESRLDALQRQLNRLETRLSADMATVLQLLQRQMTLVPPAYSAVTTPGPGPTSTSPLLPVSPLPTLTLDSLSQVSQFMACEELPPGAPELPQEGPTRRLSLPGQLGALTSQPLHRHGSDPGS
Method in brief: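 Whole-cell voltage-clamp on CHO cells stably expressing human hERG, stimulated at 0.1 Hz. Compound applied at increasing concentrations, each held 3-10 min to steady state; IKhERG amplitude expressed relative to pre-drug control (100%).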

[1] = system: Balb/c 3T3 mouse fibroblasts; assay: 3T3 in vitro phototoxicity assay; assay type: cell-based; details: Neutral Red uptake
Source text: 3T3 In Vitro Phototoxicity Assay
Phototoxicity is defined as a toxic response that is elicited after the first exposure of the skin to certain chemicals and subsequent exposure to light, or that is induced similarly by skin irradiation after systemic administration of a chemical substance. The assay used in this study is designed to detect the phototoxic potential of a chemical by using a simple in vitro cytotoxicity assay with Balb/c 3T3 mouse fibroblasts. The principle of this test is a comparison of the cytotoxicity of a chemical when tested with and without exposure to a non-toxic dose of UVA-light. Cytotoxicity is expressed as a dose dependent reduction of the growth rate of cells as determined by uptake of the vital dye Neutral Red one day after treatment.
A small amount of substance was weighed and formulated freshly in DMSO just before the start of the exposure of the cells. This stock solution or appropriate dilutions with DMSO were added to the cell suspensions to obtain the required final concentrations. All solutions were generally prepared in Eppendorf caps and discarded after use.
For this study the Neutral Red uptake (NRU) assay of Borenfreund and Puemer (Borenfreund, E, Puemer J A. Toxicity determined in vitro by morphological alterations and Neutral Red absorption. Toxicology Lett. 1985; 24:119-124) modified according to INVITTOX protocol No 78 (ERGATT/FRAME data bank of in vitro techniques in toxicology. INVITTOX PROTOCOL No 78. 3T3 NRU Phototoxicity Assay. March 1994) has been adapted to examine a possible phototoxic potential of the test item. This assay is based on the active uptake of the Neutral Red dye into the lysosomes of cultured murine fibroblasts. Because lysosomal membranes are known to be a site of action of many phototoxic compounds, this assay can provide a measure of potential for phototoxic injury.
A murine fibroblasts clone A 31 (ATCC no. CCL 163—passage No. 108) were cultured in 175 cm2 tissue culture grade flasks, containing sDMEM (Dulbecco's Minimal Essential Medium, supplemented with 10% fetal calf serum, 2 mM L-glutamine, 100 units/ml Penicillin and 100 μg/ml streptomycin) at 37° C. in a humidified atmosphere of 6% C02. Before cells approach confluence they were removed from flasks by trypsinisation. Prior to use in an assay, the cells were transferred to 96-well microtiter plates at a concentration of 1×10^4 cells/well in 100 μl volumes of sDMEM and allowed to attach for 24 h.
For incubation with murine fibroblasts, the test item was diluted in PBS/3% DMSO (detailed concentrations see in results).
Culture medium (Dulbecco's Modified Eagle Medium (DMEM), GlutaMAX (Gibco Ref 21885-025), 10% Fetal Bovine Serum (FBS) (Gibco Ref 10270-106), 100 IU/ml Penicillin and 100 μg/ml Streptomycin (Gibco Ref 15140-122)) was removed from the wells and murine fibroblasts were washed with PBS. Afterwards 100 μL of PBS/3% DMSO containing the test item was added and target cells were incubated for 1 h at 37° C. with 6% CO2.
For each test item the microtiter plates were prepared according to Table 4. “UVA plates” were exposed to approx. 5 J/cm2 UVA light, the “Dark plates” were kept in the dark and served as cytotoxicity control. Plates with chlorpromazine hydrochloride served as positive control. UV flux was measured with a UV-meter (Dr. Gröbel RM21).
Following UV irradiation, the test item was removed from the wells (one washing step with PBS) and replaced with sDMEM. Target cells were then incubated overnight at 37° C. in 6% CO2.
Each plate contained wells with cells and solvent but without test item which were either not incubated with Neutral Red solution (0% standard—S1) or were stained with Neutral Red (100% standard—S2) for calculation of the standard cell viability curve. Wells labeled with U01-U08 contained the different test item concentrations.
After the incubation the wells to be assayed were filled with 100 μL of the sDMEM containing Neutral Red. […]

SMILES | pIC50 (hERG K+ channel) | IC20 (hERG K+ channel) [µM] | Phototoxicity factor ([1]; Factor=IC50(−UV)/IC50(+UV), cut-off factor >5) | IC50 ([1]; Mus musculus, BALB/c3T3, light or radiation study, with approx. 5 J/cm2 UVA light) [µg/mL]
C[C@@H]1CN(c2ccc(C#N)c3ncccc23)C[C@@H]2c3ccc(NCCN4CC[C@H](O)C4)cc3CN12 [Example 68, 5-[(4R,10bS)-8-[2-[(3S)-3-hydroxypyrrolidin-1-yl]ethylamino]-4-methyl-3,4,6,10b-tetrahydro-1H-pyrazino[2,1-a]isoindol-2-yl]quinoline-8-carbonitrile] | < 4.70 | 5.6 | – | –
CO[C@H]1CNC[C@@H]1N(C)c1ccc2c(c1)CN1[C@H](C)CN(c3ccc(C#N)c4ncccc34)C[C@H]21 [Example 64, 5-[(4R,10bS)-8-[[(3S,4S)-4-methoxypyrrolidin-3-yl]-methyl-amino]-4-methyl-3,4,6,10b-tetrahydro-1H-pyrazino[2,1-a]isoindol-2-yl]quinoline-8-carbonitrile] | < 4.70 | 8.5 | – | –
C[C@@H]1CN(c2ccc(C#N)c3ncccc23)C[C@@H]2c3ccc(NC[C@H]4CNCCO4)cc3CN12 [Example 59, 5-[(4R,10bS)-4-methyl-8-[[(2R)-morpholin-2-yl]methylamino]-3,4,6,10b-tetrahydro-1H-pyrazino[2,1-a]isoindol-2-yl]quinoline-8-carbonitrile] | < 4.70 | > 10 | – | –
C[C@@H]1CN(c2ccc(C#N)c3ncccc23)C[C@@H]2c3ccc(N4C[C@H]5CNCCN5C4=O)cc3CN12 [Example 72, 5-[(4R,10bS)-8-[(8aR)-3-oxo-1,5,6,7,8,8a-hexahydroimidazo[1,5-a]pyrazin-2-yl]-4-methyl-3,4,6,10b-tetrahydro-1H-pyrazino[2,1-a]isoindol-2-yl]quinoline-8-carbonitrile] | < 4.70 | > 10 | – | –
C[C@@H]1CN(c2ccc(C#N)c3ncccc23)C[C@@H]2c3ccc(NCC4COCCN4)cc3CN12 (stereo partly drawn) [Example 57, 5-[(4R,10bS)-4-methyl-8-(morpholin-3-ylmethylamino)-3,4,6,10b-tetrahydro-1H-pyrazino[2,1-a]isoindol-2-yl]quinoline-8-carbonitrile] | < 4.70 | > 10 | – | –
C[C@H]1CN(c2ccc(C#N)c3ncccc23)C[C@H]2c3ccc(N4CCNCC4)cc3CN12 [Example 2, 5-[(4S,10bR)-4-methyl-8-piperazin-1-yl-3,4,6,10b-tetrahydro-1H-pyrazino[2,1-a]isoindol-2-yl]quinoline-8-carbonitrile] | < 4.70 | > 10 | – | –
[2H]c1ccc2c(N3C[C@@H](C)N4Cc5cc(N6CC7(CNCCO7)C6)ccc5[C@H]4C3)ccc(C#N)c2n1 [Example 90, 5-[(4R,10bS)-4-methyl-8-(5-oxa-2,8-diazaspiro[3.5]nonan-2-yl)-3,4,6,10b-tetrahydro-1H-pyrazino[2,1-a]isoindol-2-yl]-2-deuterio-quinoline-8-carbonitrile] | – | – | >2 | 50.6 (≈ 108 µM)
CO[C@@H]1CNC[C@@H]1Nc1ccc2c(c1)CN1[C@H](C)CN(c3ccc(C#N)c4ncccc34)C[C@H]21 [Example 60, 5-[(4R,10bS)-8-[[(3S,4R)-4-methoxypyrrolidin-3-yl]amino]-4-methyl-3,4,6,10b-tetrahydro-1H-pyrazino[2,1-a]isoindol-2-yl]quinoline-8-carbonitrile] | < 4.70 | > 10 | – | –
